Experimental data published in patent publication US7199113B2, “Pharmaceutically active compounds and methods of use thereof” (priority 1998, dated 2007).

Target: T1, human recombinant TF/VIIa complex (lipidated) (Homo sapiens, UniProt P13726)
T1 construct: Truncated recombinant human tissue factor (e.g. composed of 243 amino acids) is expressed in E. coli; host or cells: E. coli (TF)
Assay: TF/VIIa-dependent FX activation assay
Format: biochemical

T1 sequence (P13726 33-275 limits assumed): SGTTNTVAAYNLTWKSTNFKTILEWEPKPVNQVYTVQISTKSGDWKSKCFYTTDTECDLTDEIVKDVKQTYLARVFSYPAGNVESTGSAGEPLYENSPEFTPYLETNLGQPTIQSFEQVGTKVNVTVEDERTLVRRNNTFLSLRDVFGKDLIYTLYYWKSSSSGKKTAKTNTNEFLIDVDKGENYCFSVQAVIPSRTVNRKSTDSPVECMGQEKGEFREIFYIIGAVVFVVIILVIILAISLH
T1 sequence (P08709 61-212 partner limits assumed): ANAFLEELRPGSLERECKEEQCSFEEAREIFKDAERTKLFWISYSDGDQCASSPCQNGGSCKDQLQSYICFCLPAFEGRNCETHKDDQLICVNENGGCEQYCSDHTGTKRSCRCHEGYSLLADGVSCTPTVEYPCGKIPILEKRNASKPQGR
T1 sequence (P08709 213-466 partner limits assumed): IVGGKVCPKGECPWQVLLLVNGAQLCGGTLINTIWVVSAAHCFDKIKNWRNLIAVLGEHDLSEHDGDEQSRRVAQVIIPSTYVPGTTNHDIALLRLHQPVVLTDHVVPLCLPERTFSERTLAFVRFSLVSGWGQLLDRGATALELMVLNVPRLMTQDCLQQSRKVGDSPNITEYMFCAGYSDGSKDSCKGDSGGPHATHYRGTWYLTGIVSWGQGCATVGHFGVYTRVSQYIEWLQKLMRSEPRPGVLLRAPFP

SMILES: O=P(O)(O)C(CNc1cccc(O)c1)P(=O)(O)O [Compound 1, 1-(bisphosponate)-2-amino(3-hydroxyphenyl)ethyl]
- IC50 (TF/VIIa, FX and compound added simultaneously, FX 5 nM): 18.1 µM
- IC50 (TF/VIIa, FX and compound added simultaneously, FX 30 nM): 33.2 µM
- IC50 (compound preincubated with TF/VIIa 15 minutes at 37° C. prior to FX, FX 5 nM): 8.3 µM
